Assay results reported in the NIST ThermoML archive (doi:10.1021/je100583z).
Numbers after ± are expanded uncertainties.

Conditions: Liquid, Closed cell (Static) method

vapor or sublimation pressure (278.15 K) [kPa] | vapor or sublimation pressure (288.15 K) [kPa] | vapor or sublimation pressure (298.15 K) [kPa] | vapor or sublimation pressure (308.15 K) [kPa] | vapor or sublimation pressure (318.15 K) [kPa] | vapor or sublimation pressure (328.15 K) [kPa] | SMILES
234 ± 1 | 327 ± 1 | 451 ± 1 | 611 ± 1 | 805 ± 2 | 1040 ± 2 | FC(C(F)(F)F)C(F)(F)F [1,1,1,2,3,3,3-heptafluoropropane]
3960 ± 8 | 5080 ± 10 | 6425 ± 13 | – | – | – | O=C=O [carbon dioxide]
